Experimental data as given in patent US20200230247A1, “COMBINATION THERAPIES COMPRISING TARGETED THERAPEUTICS” (TARVEDA THERAPEUTICS, INC., priority 2017, published 2020).

System: NCI-H69 (small cell lung cancer) tumors
Experiment: Antitumor efficacy in mice bearing NCI-H69 tumors
Assay type: in vivo
Conditions: Conjugate 1 12.5 mpk once per week IV, Talazoparib 0.33 mpk PO daily 4 days on/three days off, combo: Talazoparib starting 24 hrs post Conjugate 1 dose, tumor volumes measured up to 16 days after treatment
Method: Mice bearing NCI-H69 (small cell lung cancer) tumors were treated with the following.
1). Vehicle controls; 2). 12.5 mpk (mg per kilogram) of Conjugate 1 once per week via intravenous administration (IV); 3). 0.33 mpk Talazoparib daily for 4 days on/three days off via oral administration (PO); 4). 12.5 mpk Conjugate 1 once per week via IV, and 0.33 mpk Talazoparib daily for 4 days on/three days off starting 24 hrs post Conjugate 1 dose.
Tumor volumes were measured 3 days, 8 days, 10 days, 13 days and 16 days after treatment.

SMILES | Tumor Growth Inhibition (TGI %) [%]
CCc1c2c(nc3ccc(OC(=O)N4CCC(CCn5ccc6cc(-n7c(O)nnc7-c7cc(C(C)C)c(O)cc7O)ccc65)CC4)cc13)-c1cc3c(c(=O)n1C2)COC(=O)[C@]3(O)CC [Conjugate 1, (S)-4,11-diethyl-4-hydroxy-3,14-dioxo-3,4,12,14-tetrahydro-1H-pyrano[3′,4′:6,7]indolizino[1,2-b]quinolin-9-yl 4-(2-(5-(3-(2,4-dihydroxy-5-isopropylphenyl)-5-hydroxy-4H-1,2,4-triazol-4-yl)-1H-indol-1-yl)ethyl)piperidine-1-carboxylate] | 50.67
Cn1ncnc1[C@H]1c2n[nH]c(=O)c3cc(F)cc(c23)N[C@@H]1c1ccc(F)cc1 [Talazoparib, talazoparib] | 15.66
